Where two headings read alike, the source gives them in different places.
Experiments:
R/R MM = settings: n = 79; cited from earlier work
R/R MF = settings: cited from earlier work
[1] = system: human erythroid progenitors (CFU-E, BFU-E); test: Colony forming cell assay, human erythroid progenitor (CFU-E, BFU-E) proliferation; assay type: cell-based; settings: 336 h, single agent, 14 days, CFU-E and BFU-E
Description: (§1) Clonogenic progenitors of human erythroid (CFU-E, BFU-E), granulocyte-monocyte (CFU-GM), and multipotential (CFU-GEMM) lineages were assessed in a semi-solid methylcellulose-based media formulation containing rhIL-3 (10 ng/mL), rhGM-SCF (10 ng/mL), rhSCF (50 ng/mL), and Epo (3 U/mL).
(§2) In addition, 5-FU was evaluated at 1.0, 0.1 and 0.01 μg/mL as a positive control for toxicity.
(§3) Normal human bone marrow light density cells (lot #0210901), derived from normal bone marrow, (Lonza, Maryland) and qualified at ReachBio, were stored at −152° C. until required for the assay. On the day of the experiment, the cells were thawed rapidly, diluted in 10 mL of Iscove's modified Dulbecco's medium containing 10% fetal bovine serum (IMDM+10% FBS) and washed by centrifugation (approximately 1500 r.p.m. for 10 minutes at room temperature). The supernatant was discarded and the cell pellets were resuspended in a known volume of IMDM+10% FBS. A cell count (3% glacial acetic acid) and viability assessment (trypan blue exclusion test) was performed for the bone marrow sample.
Clonogenic progenitors of human megakaryocyte (CFU-Mk) were assessed in a collagen-based media formulation containing rhIL-3 (10 ng/mL), rhIL-6 (10 ng/mL), and Tpo (50 ng/mL). Clonogenic progenitors of the human erythroid (CFU-E and BFU-E), myeloid (CFU-GM), and megakaryocyte (CFU-Mk) lineages were set up in the media formulations described above. Individually, the test compounds were added to the medium to give the final desired concentrations (10, 3.33, 1, 0.333, 0.1, 0.0333, 0.01 and 0.00333 μM). […]
(§4) Human myeloid and erythroid progenitor assays were initiated at 1.2×10^4 cells per culture (lot #0210921) and the human megakaryocyte assays were initiated at 1.2×10^5 cells per culture (lot #0210921). Following 14 days in culture, erythroid and myeloid colonies were assessed microscopically in situ and scored by trained personnel. […] The colonies were assessed microscopically and scored by trained personnel and divided into the following categories based on size: CFU-Mk (3-20), CFU-Mk (21-49), and CFU-Mk (≥50).
(§5) Statistical analysis: The mean±standard deviation of three replicate cultures was calculated for both erythroid and myeloid progenitors. […]
(§6) Erythroid (CFU-E and BFU-E) and myeloid (CFU-GM) colony enumeration was performed by trained personnel. In addition, the distribution of colony types as well as general colony and cellular morphology was analyzed. The variance in colony number detected in replicate cultures was representative of the historical coefficient of variation for colony enumeration using these types of assays. The number and distribution of colonies detected in the solvent control (0.1% DMSO for single agents) was no different from the standard control (containing no compound and no DMSO). […]

[2] = system: human myeloid progenitors (CFU-GM); test: Colony forming cell assay, human myeloid (granulocyte-monocyte, CFU-GM) progenitor proliferation; assay type: cell-based; settings: single agent; for IC50: Homo sapiens, 336 h, 14 days, CFU-GM; for concentrations at which myeloid progenitor proliferation was (significantly, additionally) inhibited: vs 0.1% DMSO solvent control, p<0.01
Description: as §1, §2, §3
(§7) Clonogenic progenitors of human megakaryocyte (CFU-Mk) were assessed in a collagen-based media formulation containing rhIL-3 (10 ng/mL), rhIL-6 (10 ng/mL), and Tpo (50 ng/mL). Clonogenic progenitors of the human erythroid (CFU-E and BFU-E), myeloid (CFU-GM), and megakaryocyte (CFU-Mk) lineages were set up in the media formulations described above. Individually, the test compounds were added to the medium to give the final desired concentrations (10, 3.33, 1, 0.333, 0.1, 0.0333, 0.01 and 0.00333 μM). […] Solvent control cultures (containing no compound but 0.1% DMSO) as well as standard controls (containing no compound and no DMSO) were also initiated. Once introduced into the matrices, the tubes were vortexed to ensure an equal distribution throughout.
(§8) Human myeloid and erythroid progenitor assays were initiated at 1.2×10^4 cells per culture (lot #0210921) and the human megakaryocyte assays were initiated at 1.2×10^5 cells per culture (lot #0210921). Following 14 days in culture, erythroid and myeloid colonies were assessed microscopically in situ and scored by trained personnel. The colonies were divided into the following categories based on size and morphology: CFU-E, BFU-E, CFU-GM, and CFU-GEMM. The human megakaryocyte cultures were transferred from the 35 mm dishes to labeled glass slides, fixed with methanol/acetone fixative, and then stained with anti-human CD41 antibody and an alkaline phosphate detection system according to manufacturers' instructions. The colonies were assessed microscopically and scored by trained personnel and divided into the following categories based on size: CFU-Mk (3-20), CFU-Mk (21-49), and CFU-Mk (≥50).
(§9) Statistical analysis: The mean±standard deviation of three replicate cultures was calculated for both erythroid and myeloid progenitors. Two-tailed standard t-tests were performed to assess if there was a difference in the number of colonies generated between solvent control and treated cultures. Due to the potential subjectivity of colony enumeration, a p value of less than 0.01 is deemed significant. To calculate the concentration of 50% inhibition of colony growth (IC50) for each compound, a dose response curve was generated plotting the log of the compound concentration versus the percentage of control colony growth using GraphPad Prism 9 software.
as §6

[3] = system: human megakaryocyte progenitors (CFU-Mk); test: Colony forming cell assay, human megakaryocyte progenitor (CFU-Mk) proliferation; assay type: cell-based; settings: for IC50: Homo sapiens, read-out: IC50, total CFU-Mk (megakaryocyte progenitor proliferation)
Description: as §2, §3, §7, §8, §9
Other than the test compounds being combined, the only change from the method in Example 1 was a 0.2% DMSO solvent control instead of 0.1% DMSO. The results are provided in FIGS. 2A-4C (FIGS. 2A-2C are human megakaryocytes (CFU-MK), FIGS. 3A-3C are human erythroid (CFU-E, BFU-E), and FIGS. 4A-4C are human granulocyte-monocyte (CFU-GM).

MF patients = settings: cited from earlier work
[4] = system: human myeloid, erythroid and megakaryocyte progenitors; test: Colony forming cell assays taken together (erythroid, myeloid, megakaryocyte progenitors); assay type: cell-based; settings: single agents compared
Description: as §1, §2
Normal human bone marrow light density cells (lot #0210901), derived from normal bone marrow, (Lonza, Maryland) and qualified at ReachBio, were stored at −152° C. until required for the assay. […]
Clonogenic progenitors of human megakaryocyte (CFU-Mk) were assessed in a collagen-based media formulation containing rhIL-3 (10 ng/mL), rhIL-6 (10 ng/mL), and Tpo (50 ng/mL). […]
as §4, §5

[5] = ≥50 × 10^9/L PLT, regimen RUX+Paraclisib
[6] = MOMENTUM, monotherapy 200 mg QD, N = 195
[7] = PERSIST 2, monotherapy 200 mg BID, N = 106
[8] = COMFORT 1, monotherapy 5-25 mg BID, N = 155

C[C@@H]1C[C@H](N)C[C@H](c2ccncc2NC(=O)c2ccc(F)c(-c3c(F)cccc3F)n2)C1 [PIM447]
Hem AE, G3+ anemia (R/R MM): G3+ anemia (20%), | Hem AE, G3+ neutropenia (R/R MM): (20%) | Hem AE, G3+ thrombocytopenia (R/R MM): (33%) | Non-hem AE, G3+ diarrhea (R/R MM): (6.3%), | Non-hem AE, pneumonia (R/R MM): pneumonia (7.6%)

CCOc1c([C@H](C)n2nc(C)c3c(N)ncnc32)cc(Cl)c(F)c1[C@@H]1CNC(=O)C1 [Parsaclisib, parsaclisib]
SVR35 at Week 24 (R/R MF; [5]): 3% | TSS50 at Week 24 (R/R MF; [5]): 11%

Cc1noc2c1-c1ccccc1C(c1ccc(Cl)cc1)=N[C@H]2CC(N)=O [Pelabresib, pelabresib]
SVR35 at Week 24 (R/R MF; ≥75 × 10^9/L PLT, monotherapy): 11% | TSS50 at Week 24 (R/R MF; ≥75 × 10^9/L PLT, monotherapy): 28%

N#CCNC(=O)c1ccc(-c2ccnc(Nc3ccc(N4CCOCC4)cc3)n2)cc1 [momelotinib]
IC50 [1]: 1600 nM | IC50 [2]: 260 nM | concentrations at which myeloid progenitor proliferation was (significantly, additionally) inhibited [2]: 1.0 µM | IC50 ([3]; single agent): 300 nM | SVR35 at Week 24 (R/R MF; ≥25 × 10^9/L PLT, monotherapy): 23% | TSS50 at Week 24 (R/R MF; ≥25 × 10^9/L PLT, monotherapy): 25% | TEAE Anemia, All Gr (MF patients; [6]): 99% | TEAE Anemia, ≥3 Gr (MF patients; [6]): 61% | TEAE Neutropenia, All Gr (MF patients; [6]): 29% | TEAE Neutropenia, ≥3 Gr (MF patients; [6]): 12% | TEAE Thrombocytopenia, All Gr (MF patients; [6]): 76% | TEAE Thrombocytopenia, ≥3 Gr (MF patients; [6]): 28%

C1=C/COCc2cc(ccc2OCCN2CCCC2)Nc2nccc(n2)-c2cccc(c2)COC/1 [pacritinib]
IC50 [1]: 280 nM | IC50 [2]: 170 nM | concentrations at which myeloid progenitor proliferation was (significantly, additionally) inhibited [2]: 0.1 µM | IC50 ([3]; single agent): 340 nM | SVR35 at Week 24 (R/R MF; <50 × 10^9/L PLT, monotherapy): 29% | TEAE Anemia, All Gr (MF patients; [7]): 24% | TEAE Anemia, ≥3 Gr (MF patients; [7]): 22% | TEAE Neutropenia, ≥3 Gr (MF patients; [7]): 7% | TEAE Thrombocytopenia, All Gr (MF patients; [7]): 34% | TEAE Thrombocytopenia, ≥3 Gr (MF patients; [7]): 32%

N#CC[C@H](C1CCCC1)n1cc(-c2ncnc3[nH]ccc23)cn1 [ruxolitinib]
IC50 [1]: 110 nM | IC50 [2]: 100 nM | IC50 ([3]; single agent): 200 nM | concentrations at which total CFU-Mk was (significantly) inhibited ([3]; single agent, vs solvent control): ≥ 0.033 µM | relative potency of inhibition of megakaryocyte progenitors ([3]; single agents compared): most potent | relative potency of inhibition of progenitor proliferation [4]: most potent | TEAE Anemia, All Gr (MF patients; [8]): 96% | TEAE Anemia, ≥3 Gr (MF patients; [8]): 45% | TEAE Neutropenia, All Gr (MF patients; [8]): 19% | TEAE Neutropenia, ≥3 Gr (MF patients; [8]): 7% | TEAE Thrombocytopenia, All Gr (MF patients; [8]): 70% | TEAE Thrombocytopenia, ≥3 Gr (MF patients; [8]): 13%
